# Several values for one entry are separate records, joined by “and”; a condition that tells them apart may be missing. Equal values may be shown once. Entries after “also recorded” stand apart in the source; their conditions may differ.
# Assays:
# [1] = system: transient focal cerebral ischemia model rat; test: Cerebral infarct volume in transient focal cerebral ischemia model rat (Example 33; test substance given immediately after MCA recanalization); type: in vivo; conditions: for Cerebral infarct volume (mm^3): tail vein, brain extracted 24 hours after MCA occlusion, mean ± S.E. of 10 rats; for Individual data of the cerebral infarct volume (mm^3): individual animals
# Protocol: The activity of the compound of the present disclosure was evaluated according to the following procedure.
# Compound 9 (aqueous solution (50 mg/mL) prepared by dissolving a white powder in a saturated NaHCO3 solution)
# Edaravone (trade name: Radicut (registered trademark) Mitsubishi Tanabe Pharma Corporation) Vehicle
# Japanese Pharmacopoeia physiological saline (hereinafter, physiological saline) (Otsuka Pharmaceutical Factory, Inc.)
# Rat (strain: Crl: CD (SD)) (THE JACKSON LABORATORY JAPAN, INC.)
# • Intravenous administration
# Using a syringe (1 mL, Terumo Corporation) equipped with an injection needle (25G×5/8, Terumo Corporation), tail vein administration was performed immediately after MCA recanalization.
# Using a syringe (1 mL, Terumo Corporation) equipped with an injection needle (25G×5/8, Terumo Corporation), tail vein administration was performed immediately after MCA recanalization and 30 minutes after MCA recanalization (actual result: ±0 minutes from the specified time, allowable range: ±3 minutes from the specified time).
# • 0.2 mg/kg and 2 mg/kg
# • (1) The received test substance was thawed and then divided into 4 brown glass bottles by 0.1 mL. • (2) The test substances divided into small portions were stored frozen (measured value: −24.4 to −22.6° C., allowable range: −35 to −10° C.) until use in preparation. • (3) One test substance divided into small portions for each day of administration was thawed, and 4.9 mL of physiological saline was added to prepare a 1 mg/mL administration solution . . . I • (4) From I, 0.5 mL was dispensed into a brown glass bottle, and 4.5 mL of physiological saline was added to prepare a 0.1 mg/mL administration solution. • (5) It was prepared before use. • (6) The remainder after administration was discarded.
# (§1) The rat was fixed in a supine position under 2% isoflurane inhalation anesthesia (Lot No.: 234KAP, Mylan Inc., laughing gas:oxygen=7:3). A thermometer probe connected to a digital thermometer (TX1002, Yokogawa Meters & Instruments Corporation) was inserted into the rectum to perform thermoregulation during surgery, and changes in rectal temperature before and after surgery were monitored. As a result, since a decrease in rectal temperature was not observed in any rat, heating was not performed. The right common carotid artery, external carotid artery, and internal carotid artery were exposed, and the common carotid artery and external carotid artery were ligated with sutures. A nylon yarn (plug) No. 4 previously coated with silicon (Kulzer Japan Co., Ltd.) and cut to a length of 19 mm was inserted from the bifurcation of the external carotid artery and the internal carotid artery to occlude the right MCA. After MCA occlusion, the neck skin was sutured and released from anesthesia. Flexion of the contralateral forelimb on the occluded side was confirmed 30 minutes after MCA occlusion. Under 2% isoflurane inhalation anesthesia, the right common carotid artery, the right external carotid artery, and the right internal carotid artery were exposed again, the plug was removed 2 hours after MCA occlusion, and the blood flow of the right MCA was resumed. After the blood flow of the right MCA was resumed, ligation of the right internal carotid artery and suturing of the neck skin were performed to awaken the animal from anesthesia. Note that benzylpenicillin potassium (Lot No.: 00904, Meiji Seika Pharma Co., Ltd.) was administered intramuscularly at a dosage of 20,000 units/kg before the MCA occlusion surgery.
# 24 hours after MCA occlusion, the animal was decapitated under 2% isoflurane inhalation anesthesia (Lot No.: 234KAP, Mylan Inc., laughing gas:oxygen=7:3), and the whole brain was extracted to prepare a brain section having a thickness of 2 mm. Referring to Paxinos and Watson brain atlas [axinos G. and Watson C. The rat brain in stereotaxic coordinates, second edition. […]
# [2] = system: transient focal cerebral ischemia model rat; test: Cerebral infarct volume in transient focal cerebral ischemia (MCA occlusion/recanalization) model rat; type: in vivo; conditions: for Cerebral infarct volume compared with the vehicle group: Dunnett's multiple comparison test; for Cerebral infarct volume: group mean ± S.E., n=10, brain extracted 24 hours after MCA occlusion
# Source text: as §1, with “248KKY, Viatris Pharmaceutical Co., Ltd.,” for “234KAP, Mylan Inc.,”
# 24 hours after MCA occlusion, the animal was decapitated under 2% isoflurane inhalation anesthesia (Lot No.: 248KKY, Viatris Pharmaceutical Co., Ltd., laughing gas:oxygen=7:3), and the whole brain was extracted to prepare a brain section having a thickness of 2 mm. Referring to Paxinos and Watson brain atlas [Paxinos G. and Watson C. The rat brain in stereotaxic coordinates, second edition. San Diego, New York, Boston, London, Sydney, Tokyo, Toronto: Academic Press Inc.; 1986.], the brain sections were set at positions where coronal planes of 4 mm anterior to Bregma, 2 mm anterior to Bregma, above Bregma, 2 mm posterior to Bregma, 4 mm posterior to Bregma, and 6 mm posterior to Bregma were obtained. The brain sections were immersed in a 1% (W/V) 2,3,5-triphenyltetrazolium chloride (Lot No.: M7B5587, Nacalai Tesque Inc.) solution at room temperature, stained, and photographed. From the obtained photograph, brain sections (infarction site and non-infarction site) were traced on an OHP sheet. The traced image was captured by a scanner (Seiko Epson Corporation), image analysis was performed using WinROOF2015 (MITANI CORPORATION), a cerebral infarct area was obtained as a measured value, and a cerebral infarct volume between 4 mm anterior to Bregma and 6 mm posterior to Bregma was calculated from the obtained value.
# [formula] • V: Cerebral infarct volume • a: Cerebral infarct area on section of 4 mm anterior to Bregma • b: Cerebral infarct area on section of 2 mm anterior to Bregma • c: Cerebral infarct area on section of Bregma • d: Cerebral infarct area on section of 2 mm posterior to Bregma • e: Cerebral infarct area on section of 4 mm posterior to Bregma • f: Cerebral infarct area on section of 6 mm posterior to Bregma
# • Calculation of cerebral infarct volume (mm^3)
# The employed data were expressed as a mean±standard error.
# The following combinations were performed.
smiles,measurement,setting,value
CC[C@@]1(C)Oc2cc(ccc2O)C[C@H](NC)C(=O)N[C@@H](C(C)C)C(=O)N[C@@H]1C(=O)N[C@@H](CC(=O)O)C(=O)O [Compound 9],Cerebral infarct volume (mm^3),"[1]; Compound 9 0.2 mg/kg, immediately after MCA recanalization, 2 hours MCA occlusion, 0.2 mg/kg",336.9±14.2 mm^3 and 336.9 mm^3
same,Statistical difference of cerebral infarct volume from the vehicle group (Dunnett's multiple comparison test),[1]; Compound 9 2 mg/kg i.v.,a statistically significant difference was observed in the 2 mg/kg group
same,Cerebral infarct volume (mm^3),"[1]; Compound 9 2 mg/kg, immediately after MCA recanalization, 2 hours MCA occlusion, 2 mg/kg",301.8±12.8 mm^3 and 301.8 ± 12.8 ^** mm^3 and 301.8 mm^3
same,Cerebral infarct reduction action: cerebral infarct volume compared with the vehicle group,"[1]; Compound 9 groups, 0.2 mg/kg and 2 mg/kg i.v.",all showed low values; also recorded: has an ameliorating effect on cerebral infarct after cerebrovascular disorder
same,Individual data of the cerebral infarct volume (mm^3),"[1]; Compound 9 0.2 mg/kg group (n = 10), 0.2 mg/kg",341.9 mm^3 and 350.2 mm^3 and 331.8 mm^3 and 366.5 mm^3 and 372.7 mm^3 and 219.1 mm^3 and 318.3 mm^3 and 339.3 mm^3 and 369.8 mm^3 and 359.8 mm^3
same,Individual data of the cerebral infarct volume (mm^3),"[1]; Compound 9 2 mg/kg group (n = 10), 2 mg/kg",264.4 mm^3 and 343.3 mm^3 and 342.4 mm^3 and 374.1 mm^3 and 279.7 mm^3 and 273.1 mm^3 and 293.4 mm^3 and 251.2 mm^3 and 316.6 mm^3 and 279.6 mm^3
same,Cerebral infarct volume compared with the vehicle group,[2]; administered 30 minutes after MCA recanalization,ameliorating effect on cerebral infarct
same,Cerebral infarct volume compared with the vehicle group,"[2]; administered 1 hour after MCA recanalization, p value=0.0525",improvement tendency
same,Cerebral infarct volume,[2]; 2 mg/kg administered 30 minutes after MCA reperfusion,250.0±20.5 mm^3 and 250.0 ± 20.5 * mm^3 and 250.0 mm^3
same,Cerebral infarct volume,[2]; 2 mg/kg administered 1 hour after MCA reperfusion,260.4±13.9 mm^3 and 260.4 mm^3
same,"Cerebral infarct volume, individual data","[2]; individual animals Nos. 202-214, administered 30 minutes after MCA reperfusion",254.3 mm^3 and 319.8 mm^3 and 274.6 mm^3 and 210.2 mm^3 and 133.9 mm^3 and 192.3 mm^3 and 272.2 mm^3 and 296.0 mm^3 and 201.4 mm^3 and 345.5 mm^3
same,"Cerebral infarct volume, individual data","[2]; individual animals Nos. 301-314, second Compound 9 group (head prints 30 minutes after MCA reperfusion; mean matches the 1 hour group)",253.1 mm^3 and 243.0 mm^3 and 355.2 mm^3 and 220.7 mm^3 and 261.4 mm^3 and 250.7 mm^3 and 192.0 mm^3 and 256.3 mm^3 and 272.3 mm^3 and 299.0 mm^3
"CC1=NN(c2ccccc2)C(=O)C1 [Edaravone, reference compound]",Cerebral infarct volume compared with the vehicle group (Student's t-test),"[1]; Edaravone 3 mg/kg per dose i.v., twice","showed low values, and a statistically significant difference was observed; also recorded: showed a lower value than that of the vehicle group, and a statistically significant difference was observed"
same,Cerebral infarct volume (mm^3),"[1]; Edaravone 3 mg/kg per dose, immediately after and 30 minutes after MCA recanalization",292.8±14.2 mm^3 and 292.8 ± 14.2 ^## mm^3 and 292.8 mm^3
same,Individual data of the cerebral infarct volume (mm^3),[1]; Edaravone 3 mg/kg per dose group (n = 10),248.4 mm^3 and 324.8 mm^3 and 282.1 mm^3 and 375.0 mm^3 and 308.0 mm^3 and 319.8 mm^3 and 217.2 mm^3 and 299.1 mm^3 and 253.8 mm^3
same,Cerebral infarct volume,[2]; Edaravone group 3 mg/kg,232.2±14.6 mm^3 and 232.2 ± 14.6 ^## mm^3 and 232.2 mm^3
same,"Cerebral infarct volume, individual data","[2]; individual animals Nos. 401-414, Edaravone group",140.7 mm^3 and 218.3 mm^3 and 221.0 mm^3 and 170.0 mm^3 and 231.1 mm^3 and 268.2 mm^3 and 268.9 mm^3 and 278.6 mm^3 and 268.4 mm^3 and 257.0 mm^3

# Reference: patent US20260151451A1, “CYCLIC PEPTIDE DERIVATIVE COMPOSITION FOR TREATING OR PREVENTING CENTRAL NERVOUS SYSTEM INJURY/DISEASE” (DKS Co. Ltd., priority 2022, published 2026)
